The nature of data set [1]: AUC(0 to infinity) in 12 hr fasted SPF Sprague-Dawley rat at 15 mg/kg, po upon 2 hrs fasting post-administration upto 24 hrs. The arrangement: dose 15 mg/kg, time < 24 hrs, route po. The note with it: in vivo. Type of data set: ADME, organism-based.
A short description of data set [2]: Oral bioavailability in 12 hr fasted SPF Sprague-Dawley rat at 15 mg/kg upon 2 hrs fasting post-administration measured upto 24 hrs. Type of data set: ADME, organism-based. To be noted: in vivo.
The target in data set [3] is NUAK family SNF1-like kinase 1 (Homo sapiens) (UniProt O60285). Nature of the data set: Inhibition of human ARK5 at 0.5 uM relative to control.
Chain of NUAK family SNF1-like kinase 1 (Homo sapiens) (O60285 whole entry): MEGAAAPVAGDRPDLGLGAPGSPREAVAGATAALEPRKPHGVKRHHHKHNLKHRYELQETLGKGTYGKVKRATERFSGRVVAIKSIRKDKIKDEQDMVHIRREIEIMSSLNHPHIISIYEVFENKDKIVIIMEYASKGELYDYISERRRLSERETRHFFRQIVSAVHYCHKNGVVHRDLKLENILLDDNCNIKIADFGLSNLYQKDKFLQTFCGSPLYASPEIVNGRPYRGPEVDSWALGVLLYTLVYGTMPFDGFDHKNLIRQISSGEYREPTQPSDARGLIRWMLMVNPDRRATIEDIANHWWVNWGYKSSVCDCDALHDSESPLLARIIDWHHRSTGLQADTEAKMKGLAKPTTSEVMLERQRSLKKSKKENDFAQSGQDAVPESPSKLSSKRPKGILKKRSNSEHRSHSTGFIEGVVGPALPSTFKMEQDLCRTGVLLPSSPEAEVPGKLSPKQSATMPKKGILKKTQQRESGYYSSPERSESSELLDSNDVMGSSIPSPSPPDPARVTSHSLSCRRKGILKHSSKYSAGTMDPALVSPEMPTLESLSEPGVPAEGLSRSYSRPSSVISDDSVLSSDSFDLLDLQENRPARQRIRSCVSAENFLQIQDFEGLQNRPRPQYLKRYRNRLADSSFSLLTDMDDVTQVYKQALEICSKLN
For data set [4], the target named is Cyclin-Y/Cyclin-dependent kinase 16 (Homo sapiens) (UniProt Q00536+Q8ND76). As to the kind of experiment: Inhibition of human CDK16/cyclin-Y at 0.5 uM relative to control. Type of data set: protein-complex assay.
Data set [5] concerns the target Tyrosine-protein kinase ITK/TSK (Homo sapiens) (UniProt Q08881). Nature of the data set: Inhibition of ITK (unknown origin) at 0.5 uM relative to control.
The target in data set [6] is Tyrosine-protein kinase Tec (Homo sapiens) (UniProt P42680). Nature of the data set: Inhibition of TEC (unknown origin) at 0.5 uM relative to control.
Chain of Tyrosine-protein kinase Tec (Homo sapiens) (P42680 whole entry): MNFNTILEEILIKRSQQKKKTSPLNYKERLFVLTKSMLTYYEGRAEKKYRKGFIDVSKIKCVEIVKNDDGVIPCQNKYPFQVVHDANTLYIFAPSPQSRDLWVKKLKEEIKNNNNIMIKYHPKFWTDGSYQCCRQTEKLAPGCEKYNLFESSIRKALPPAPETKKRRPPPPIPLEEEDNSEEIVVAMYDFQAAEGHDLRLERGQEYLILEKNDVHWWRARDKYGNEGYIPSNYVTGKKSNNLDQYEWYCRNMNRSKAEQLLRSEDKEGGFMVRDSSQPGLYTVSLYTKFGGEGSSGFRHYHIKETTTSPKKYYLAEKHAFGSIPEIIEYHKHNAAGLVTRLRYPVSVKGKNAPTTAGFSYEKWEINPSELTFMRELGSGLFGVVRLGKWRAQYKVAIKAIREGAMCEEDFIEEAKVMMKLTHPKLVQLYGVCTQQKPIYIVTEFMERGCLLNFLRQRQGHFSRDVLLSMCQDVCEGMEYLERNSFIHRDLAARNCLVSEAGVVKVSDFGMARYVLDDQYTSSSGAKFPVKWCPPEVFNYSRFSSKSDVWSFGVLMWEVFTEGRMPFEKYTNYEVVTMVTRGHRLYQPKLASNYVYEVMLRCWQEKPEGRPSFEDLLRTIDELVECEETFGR
The target of data set [7] is T1, Tyrosine-protein kinase JAK3 (Homo sapiens) (UniProt P52333).
T1 sequence (whole entry): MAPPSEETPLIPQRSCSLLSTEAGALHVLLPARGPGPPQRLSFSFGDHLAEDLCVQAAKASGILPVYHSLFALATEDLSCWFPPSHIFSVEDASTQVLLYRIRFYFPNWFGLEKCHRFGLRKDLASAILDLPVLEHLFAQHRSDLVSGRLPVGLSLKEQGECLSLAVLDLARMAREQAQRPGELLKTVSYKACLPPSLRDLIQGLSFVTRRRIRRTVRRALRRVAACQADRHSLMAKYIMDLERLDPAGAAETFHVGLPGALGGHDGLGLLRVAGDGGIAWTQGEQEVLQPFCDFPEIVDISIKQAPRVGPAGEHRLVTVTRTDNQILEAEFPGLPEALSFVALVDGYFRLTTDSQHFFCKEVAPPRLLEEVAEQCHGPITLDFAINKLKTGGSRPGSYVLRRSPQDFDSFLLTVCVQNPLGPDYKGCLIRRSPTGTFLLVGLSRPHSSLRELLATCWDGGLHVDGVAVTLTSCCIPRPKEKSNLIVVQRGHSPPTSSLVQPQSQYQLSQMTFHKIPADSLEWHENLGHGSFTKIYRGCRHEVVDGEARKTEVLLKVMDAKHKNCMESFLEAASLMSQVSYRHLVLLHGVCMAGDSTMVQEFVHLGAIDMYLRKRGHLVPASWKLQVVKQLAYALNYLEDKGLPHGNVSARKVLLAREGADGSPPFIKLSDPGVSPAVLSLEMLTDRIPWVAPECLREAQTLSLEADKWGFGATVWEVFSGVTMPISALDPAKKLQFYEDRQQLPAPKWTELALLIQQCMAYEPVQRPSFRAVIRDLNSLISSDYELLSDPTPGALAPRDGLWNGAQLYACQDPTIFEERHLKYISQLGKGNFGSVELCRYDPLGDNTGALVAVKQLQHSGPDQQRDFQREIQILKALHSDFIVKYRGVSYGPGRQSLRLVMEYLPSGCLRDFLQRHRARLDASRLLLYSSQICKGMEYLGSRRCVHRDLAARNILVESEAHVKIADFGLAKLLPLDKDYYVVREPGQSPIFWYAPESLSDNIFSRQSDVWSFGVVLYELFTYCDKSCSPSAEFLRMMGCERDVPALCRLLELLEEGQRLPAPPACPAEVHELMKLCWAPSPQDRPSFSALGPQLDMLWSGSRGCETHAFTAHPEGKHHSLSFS
Nature of the data set: Inhibition of JAK3 activation in human U-937 cells assessed as decrease in P-STAT5 incubated for 0 to 24 hrs by Western blot analysis. Type of data set: cell-based. The note with it: time 0-24 hrs, DDE = dose-dependent effect.

The target in data set [8] is T1, Tyrosine-protein kinase JAK3 (Homo sapiens). Nature of the data set: Inhibition of JAK3 in human U-937 cells assessed as decrease in P-JAK3 phosphorylation at 200 uM pretreated for 10 hrs followed by compound washout by immunoblotting analysis. Type of data set: cell-based.
For data set [9] the target is unchanged. Nature of the data set: Irreversible inhibition of JAK3 in human U-937 cells assessed as decrease in P-JAK3 phosphorylation at 200 uM pretreated for 8 hrs followed by compound washout by immunoblotting analysis. Type of data set: cell-based. For orientation: In western blotting, separated proteins are transferred to a membrane and probed.
The test system of data set [10] is U-937. Nature of the data set: Induction of cell cycle arrest in human U-937 cells assessed as accumulation at G0/G1 phase at 3.7 nM measured after 24 hrs by propidium iodide staining based flow cytometric analysis (reference value: 62.95%). Type of data set: functional. For orientation: A flow cytometer gives signals particle by particle.
Data set [11] has as its system U-937. As to the kind of experiment: Induction of cell cycle arrest in human U-937 cells assessed as accumulation at G0/G1 phase at 11 nM measured after 24 hrs by propidium iodide staining based flow cytometric analysis (reference value: 62.95%). Type of data set: functional.
Data set [12] relates to U-937. Nature of the data set: Induction of cell cycle arrest in human U-937 cells assessed as accumulation at G0/G1 phase at 33 nM measured after 24 hrs by propidium iodide staining based flow cytometric analysis (reference value: 62.95%). Type of data set: functional.
Data set [13] deals with U-937. As to the kind of experiment: Induction of cell cycle arrest in human U-937 cells assessed as accumulation at G0/G1 phase at 300 nM measured after 24 hrs by propidium iodide staining based flow cytometric analysis (reference value: 62.95%). Type of data set: functional.
For data set [14], the system named is U-937. Nature of the data set: Induction of cell cycle arrest in human U-937 cells assessed as accumulation at G2/M phase at 3.7 nM measured after 24 hrs by propidium iodide staining based flow cytometric analysis (reference value: 21.41%). Type of data set: functional.
Data set [15] concerns U-937. As to the kind of experiment: Induction of cell cycle arrest in human U-937 cells assessed as downregulation of Cyclic B1 at 0 to 300 nM measured after 24 hrs by western blot analysis. Type of data set: functional, cell-based. The note with it: dose 0-300 nM.
Data set [16] concerns U-937. Nature of the data set: Induction of cell cycle arrest in human U-937 cells assessed as downregulation of Cyclic D3 at 0 to 300 nM measured after 24 hrs by western blot analysis. Type of data set: functional, cell-based. The note with it: dose 0-300 nM.
Data set [17] has as its system U-937. Nature of the data set: Induction of cell cycle arrest in human U-937 cells assessed as downregulation of Cyclic E1 at 0 to 300 nM measured after 24 hrs by western blot analysis. Type of data set: functional, cell-based. The note with it: dose 0-300 nM.
The nature of data set [18]: Toxicity in CB17-SCID mouse xenografted with human U-937 cells assessed as body weight loss at 12.5 to 50 mg/kg, po twice daily for 10 days. To be noted: in vivo, 240 h, dose 12.5-50 mg/kg, time 10 day. Type of data set: organism-based.
Data set [19] addresses T1, Tyrosine-protein kinase JAK3 (Homo sapiens). As to the kind of experiment: Inhibition of human JAK3 at 0.5 uM assessed as competition rate relative to control.
Data set [20] addresses Cyclin-dependent kinase 16 (Homo sapiens) (UniProt Q00536). As to the kind of experiment: Inhibition of human CDK16 at 0.5 uM assessed as competition rate relative to control.
The target of data set [21] is Tyrosine-protein kinase ITK/TSK (Homo sapiens) (UniProt Q08881). As to the kind of experiment: Inhibition of ITK (unknown origin) at 0.5 uM assessed as competition rate relative to control.
Chain of Tyrosine-protein kinase ITK/TSK (Homo sapiens) (Q08881 whole entry): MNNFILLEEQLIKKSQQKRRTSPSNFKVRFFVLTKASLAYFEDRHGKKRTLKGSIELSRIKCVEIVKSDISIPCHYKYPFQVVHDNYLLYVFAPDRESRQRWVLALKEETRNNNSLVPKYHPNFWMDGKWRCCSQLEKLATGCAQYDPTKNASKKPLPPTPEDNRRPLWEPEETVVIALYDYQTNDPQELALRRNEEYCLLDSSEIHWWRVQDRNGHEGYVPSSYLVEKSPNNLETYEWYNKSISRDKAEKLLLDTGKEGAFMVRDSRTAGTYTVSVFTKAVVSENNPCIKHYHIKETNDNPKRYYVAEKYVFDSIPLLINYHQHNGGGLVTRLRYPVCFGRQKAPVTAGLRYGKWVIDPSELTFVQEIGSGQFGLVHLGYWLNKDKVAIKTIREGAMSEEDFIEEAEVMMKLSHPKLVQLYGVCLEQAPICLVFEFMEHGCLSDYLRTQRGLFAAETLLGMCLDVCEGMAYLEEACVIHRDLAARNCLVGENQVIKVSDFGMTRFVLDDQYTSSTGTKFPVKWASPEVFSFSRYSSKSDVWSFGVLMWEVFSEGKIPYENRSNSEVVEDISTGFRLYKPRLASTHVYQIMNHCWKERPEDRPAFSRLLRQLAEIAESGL
The target in data set [22] is Tyrosine-protein kinase TXK (Homo sapiens) (UniProt P42681). Nature of the data set: Inhibition of TXK (unknown origin) at 0.5 uM assessed as competition rate relative to control.
Chain of Tyrosine-protein kinase TXK (Homo sapiens) (P42681 whole entry): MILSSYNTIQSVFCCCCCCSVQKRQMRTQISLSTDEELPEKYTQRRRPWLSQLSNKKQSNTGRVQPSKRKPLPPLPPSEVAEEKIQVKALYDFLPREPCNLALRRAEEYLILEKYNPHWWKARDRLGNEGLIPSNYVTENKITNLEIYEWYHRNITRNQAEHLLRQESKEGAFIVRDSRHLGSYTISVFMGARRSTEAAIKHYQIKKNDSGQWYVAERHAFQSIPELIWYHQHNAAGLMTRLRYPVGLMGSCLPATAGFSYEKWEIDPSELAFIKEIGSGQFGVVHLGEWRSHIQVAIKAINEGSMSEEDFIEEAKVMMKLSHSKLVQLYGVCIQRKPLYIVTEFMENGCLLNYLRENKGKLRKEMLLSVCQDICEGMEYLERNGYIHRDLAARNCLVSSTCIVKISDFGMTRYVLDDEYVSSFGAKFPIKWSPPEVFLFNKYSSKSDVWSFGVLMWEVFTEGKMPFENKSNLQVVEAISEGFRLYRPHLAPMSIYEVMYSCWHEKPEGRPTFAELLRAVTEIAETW
Data set [23] addresses [Pyruvate dehydrogenase (acetyl-transferring)] kinase isozyme 1, mitochondrial (Homo sapiens) (UniProt Q15118). As to the kind of experiment: Inhibition of PDK1 (unknown origin) at 0.5 uM assessed as competition rate relative to control.
For data set [24], the system named is BaF3. As to the kind of experiment: cells. To be noted: Mus musculus, BaF3, 72 h.

The source made the active and inactive calls. No cut-off for these calls is given here.

Broadly, the AUC(0-inf) is total exposure, with the tail of the curve extrapolated. Read a low AUC(0-inf) as less exposure. A word on the bioavailability: it is dose-corrected exposure relative to a reference, in per cent. Read a low bioavailability as little systemic uptake. As usually defined, the inhibition is the share of the control response that was lost under treatment. What is called IC50 is the midpoint of a concentration-inhibition curve. A higher IC50 goes with weaker potency in that assay.

Chain of Cyclin-dependent kinase 16 (Homo sapiens) (Q00536 whole entry): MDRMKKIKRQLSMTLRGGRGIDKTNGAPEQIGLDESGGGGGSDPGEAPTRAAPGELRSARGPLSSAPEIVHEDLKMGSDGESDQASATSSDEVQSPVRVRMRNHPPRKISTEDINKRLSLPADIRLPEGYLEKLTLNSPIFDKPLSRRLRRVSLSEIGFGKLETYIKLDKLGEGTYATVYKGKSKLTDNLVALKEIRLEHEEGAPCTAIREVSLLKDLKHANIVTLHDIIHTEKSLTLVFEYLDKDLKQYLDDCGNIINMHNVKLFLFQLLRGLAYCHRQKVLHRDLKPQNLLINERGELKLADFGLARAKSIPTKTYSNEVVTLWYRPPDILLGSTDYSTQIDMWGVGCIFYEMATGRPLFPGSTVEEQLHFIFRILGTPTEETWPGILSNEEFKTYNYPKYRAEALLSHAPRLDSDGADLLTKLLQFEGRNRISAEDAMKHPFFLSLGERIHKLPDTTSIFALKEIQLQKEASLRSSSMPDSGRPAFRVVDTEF

As to `C=CC(=O)Nc1cc(Nc2ncc(Cl)c(O[C@@H]3CO[C@H]4[C@@H]3OC[C@H]4OC)n2)ccc1N(C)CCN(C)C`, the AUC(0-inf) in data set [1] worked out at 334 ng·h/mL. Further, in data set [2], the bioavailability stood at 20.7%. For the same molecule, the inhibition in data set [3] is 11%; in [4], 30%; in [5], 92%; in data set [6], 99%; in data set [7] it was “Dde”; in [19], 90%. Also, the inhibition was found to be 70% in data set [20], 40% in [21], 40% in data set [22] and 40% in data set [23]. Besides, the inhibition result in data set [8] and in data set [9] was “Active” in each case. Moreover, the Activity in [10] is recorded as 61.57%; in data set [11] it was 62.58%; in data set [12], 64.92%; in [13] it was 76.88%; in data set [14], 23.11%; in data set [18], “Non-Toxic”. Further, the outcome in data set [15], in data set [16] and in data set [17] was Active. Besides, the midpoint of inhibition in data set [24], the IC50, lay at 178 nM.

These data come from ChEMBL document CHEMBL5137068, “Discovery of Hexahydrofuro[3,2-b]furans as New Kinase-Selective and Orally Bioavailable JAK3 Inhibitors for the Treatment of Leukemia Harboring a JAK3 Activating Mutant” (J Med Chem, 2022).
